System: RKO cell line
Assay: Effect of methylation inhibitor on global methylation percentage (restriction library qPCR)
Assay type: cell-based
Method: The following steps are performed to create (including amplify) the restriction library, and measure methylation level: • 1. Add equal amount of a genomic DNA into two tubes containing the Msp I restriction library making system or Hpa II restriction library making system. • 2. Incubate the two tubes in PCR instrument. Repeat the following thermal cycle 100 times: 22 degree Celsius for 2 minutes, 16 degree 2 minutes, and 4 degree 2 minutes.
• Hpa II, Msp I and Cla I have more than 75% activity left at 22 degree. The generated restriction fragments and adaptors have the compatible CG-5′ overhang that contain phosphate at 5′ ends. At 4 degree Celsius, the compatible overhangs anneal together then T4 DNA ligases join the two annealed ends. • 3. […] Consequently the hetero-ligation is no longer recognizable by Cla I, Msp I or Hpa II. • 4. […] The proportion of hetero-ligation products becomes higher and higher, while the proportion of self-ligation products becomes lower and lower accompanied with repeating the cycle digestion-ligation reaction. • 6. All restriction sites in the Msp I restriction library making system disappear after hetero-ligation between restriction fragments and the adapters at reaction end, but not the methylated restriction sites (CCGG) in Hpa II restriction library making system. • 7. […]

In the case of `Nc1ncn([C@H]2C[C@H](O)[C@@H](CO)O2)c(=O)n1` [DAC, 5-aza-2′ deoxycytidine], the “methylation percentage of RKO cells after methylation inhibitor treatment” value (5 μM for 3 days prior to harvest, decreased from 96.7% (before treatment)) is reported as 35.6% and the “effect on the methylation level of RKO cell line” value (FIG. 9 legend) is reported as “significantly affected”.
